Results reported in publication PMC9732821, “Neurotrophic Activity and Its Modulation by Zinc Ion of a Dimeric Peptide Mimicking the Brain-Derived Neurotrophic Factor N-Terminal Region” (ACS Chemical Neuroscience, 2022).

System: human TrkB
Experiment: TrkB phosphorylation, immunoprecipitation and western blot in SH-SY5Y cells transfected with hTrkB-EGFP
Type: cell-based
Settings: 10 μM peptide, 10 min stimulation, normalized to ctrl; four replicas (peptides); one-way ANOVA with Bonferroni
From the text: The possibility of mimicking the function of the full-length BDNF protein by using a linear peptide fragment encompassing the first 12 amino acids of the mature NT N-terminal was already postulated.[31] Here, we named this sequence as m-bdnf (Figure 1A) and performed a systematic comparison between the performance of the full-length human BDNF produced recombinantly in Escherichia coli([32]) and (i) m-bdnf, (ii) a dimeric peptide displaying two copies of the m-bdnf sequence covalently bound by a disulfide bridge (d-bdnf), and (iii) a monomeric peptide displaying the scrambled sequence of m-bdnf (s-bdnf). We first investigated the ability of these peptides to activate the TrkB receptor. To this purpose, we expressed a recombinant GFP fusion of human TrkB (Figure 1A) in SH-SY5Y cells. Then, cells were stimulated with BDNF or the related peptides. […] Then, the same cell-based assays for ERK phosphorylation were used to better elucidate the agonist properties of d-bdnf (Figure 1D). […] Specifically, an EC50 concentration of BDNF (1 nM) or of d-bdnf (10 μM) was used in combination with the increasing concentration of d-bdnf and BDNF, respectively, and the increase of ERK phosphorylation was assessed. […] Of note, we also performed a non-permeabilizing immunofluorescence analysis to quantify the membrane-bound BDNF in differentiated SH-SY5Y cells in the absence or presence of BDNF and d-bdnf (Figure S1C,D). […] The same increment was not observed upon treatment with the d-bdnf peptide, while instead we measured a slight (∼18%) decrease of the signal possibly due to the ability of the peptide to displace endogenous BDNF at the tested dose (10 μM). […]
Figure 1 Activation of the TrkB receptor by BDNF and its mimetic peptide ligands. […] (C) Scatter dot plot of ERK (left) and AKT (right) phosphorylation levels detected in differentiated SH-SY5Y cells, after stimulation with the same treatments as in (B). […] (G) Bar graph of mean ± SD ‘B-1’ values retrieved from N&B analysis for all the different conditions measured. […]

Substance	TrkB phosphorylation (p-Tyr/TrkB band density)
HSDPARRGELSV-NH2 [m-bdnf, linear peptide fragment encompassing the first 12 amino acids of the mature NT N-terminal]	only d-bdnf was able to promote a significant TrkB phosphorylation
HSDPARRGELSVC-C-VSLEGRRAPDSH (disulfide) [d-bdnf]	significant TrkB phosphorylation (p < 0.05)
SRAGPHLRDVSE-NH2 [s-bdnf]	only d-bdnf was able to promote a significant TrkB phosphorylation
